Reference: US11697648B2, “Fused pyrimidine pyridinone compounds as JAK inhibitors” (THERAVANCE BIOPHARMA R&D IP, LLC, priority 2019, dated 2023)

Key:
JAK1 = JAK1 (Homo sapiens (Human), UniProt P23458); test: Biochemical JAK1 kinase assay (LanthaScreen)
Outline: (§1)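 GST-JAK + GFP-STAT1 peptide, HEPES pH 7.5/MgCl2/EGTA/Brij-35 buffer; cpd preincubation 1 h RT; ATP start, 1 h RT; stop with 10 mM EDTA + 2 nM Tb-anti-pSTAT1; TR-FRET 520/495. 4-parameter IC50 → pKi (Cheng-Prusoff).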

JAK2 = JAK2 (Homo sapiens (Human), UniProt O60674); test: Biochemical JAK2 kinase assay (LanthaScreen)
Sequence of JAK2 (O60674 whole entry): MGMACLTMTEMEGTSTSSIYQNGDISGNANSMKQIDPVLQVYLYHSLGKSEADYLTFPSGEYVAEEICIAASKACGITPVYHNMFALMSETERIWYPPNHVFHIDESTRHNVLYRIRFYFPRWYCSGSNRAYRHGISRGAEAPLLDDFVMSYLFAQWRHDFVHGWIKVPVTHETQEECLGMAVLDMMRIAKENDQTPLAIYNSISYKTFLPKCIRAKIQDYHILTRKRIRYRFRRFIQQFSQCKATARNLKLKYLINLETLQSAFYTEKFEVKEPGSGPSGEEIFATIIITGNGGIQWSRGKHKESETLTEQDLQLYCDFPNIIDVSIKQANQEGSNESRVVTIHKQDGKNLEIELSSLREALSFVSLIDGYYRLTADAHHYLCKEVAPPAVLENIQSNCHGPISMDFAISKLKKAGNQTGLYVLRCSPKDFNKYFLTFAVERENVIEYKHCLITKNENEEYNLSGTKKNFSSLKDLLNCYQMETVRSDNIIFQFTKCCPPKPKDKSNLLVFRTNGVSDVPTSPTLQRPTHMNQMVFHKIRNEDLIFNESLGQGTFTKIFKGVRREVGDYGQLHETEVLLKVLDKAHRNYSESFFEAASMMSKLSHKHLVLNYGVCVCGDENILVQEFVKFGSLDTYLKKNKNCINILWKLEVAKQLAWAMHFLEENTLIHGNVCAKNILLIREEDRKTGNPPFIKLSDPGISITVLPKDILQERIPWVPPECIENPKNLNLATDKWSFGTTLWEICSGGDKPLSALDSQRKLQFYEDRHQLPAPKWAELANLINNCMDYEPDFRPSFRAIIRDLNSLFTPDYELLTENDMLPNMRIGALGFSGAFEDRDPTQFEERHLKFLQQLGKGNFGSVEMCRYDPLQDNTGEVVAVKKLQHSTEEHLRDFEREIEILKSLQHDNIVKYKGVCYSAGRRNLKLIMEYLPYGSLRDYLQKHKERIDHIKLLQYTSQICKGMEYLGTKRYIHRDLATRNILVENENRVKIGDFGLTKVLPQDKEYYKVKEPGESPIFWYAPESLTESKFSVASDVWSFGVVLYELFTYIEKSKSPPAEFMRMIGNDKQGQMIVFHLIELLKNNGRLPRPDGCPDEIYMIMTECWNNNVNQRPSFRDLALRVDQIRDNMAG
Outline: as §1

[1] = system: IL-2 stimulated STAT5 phosphorylation in Tall-1 human T cell line (JAK3); test: Cellular JAK3 potency assay: inhibition of IL-2 stimulated pSTAT5 in Tall-1 T cells; assay type: cell-based
Outline: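 AlphaLISA SureFire Ultra measures STAT5 Tyr694/699 phosphorylation in lysed Tall-1 human T cells. Cells were exposed to compound for 1 h at 37 °C before a 30 min IL-2 challenge (300 ng/ml final). Values are pIC50 means with standard deviation from signal-versus-concentration curves.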

JAK3 = JAK3 (Homo sapiens (Human), UniProt P52333); test: Biochemical JAK3 kinase assay (LanthaScreen)
Sequence of JAK3 (P52333 whole entry): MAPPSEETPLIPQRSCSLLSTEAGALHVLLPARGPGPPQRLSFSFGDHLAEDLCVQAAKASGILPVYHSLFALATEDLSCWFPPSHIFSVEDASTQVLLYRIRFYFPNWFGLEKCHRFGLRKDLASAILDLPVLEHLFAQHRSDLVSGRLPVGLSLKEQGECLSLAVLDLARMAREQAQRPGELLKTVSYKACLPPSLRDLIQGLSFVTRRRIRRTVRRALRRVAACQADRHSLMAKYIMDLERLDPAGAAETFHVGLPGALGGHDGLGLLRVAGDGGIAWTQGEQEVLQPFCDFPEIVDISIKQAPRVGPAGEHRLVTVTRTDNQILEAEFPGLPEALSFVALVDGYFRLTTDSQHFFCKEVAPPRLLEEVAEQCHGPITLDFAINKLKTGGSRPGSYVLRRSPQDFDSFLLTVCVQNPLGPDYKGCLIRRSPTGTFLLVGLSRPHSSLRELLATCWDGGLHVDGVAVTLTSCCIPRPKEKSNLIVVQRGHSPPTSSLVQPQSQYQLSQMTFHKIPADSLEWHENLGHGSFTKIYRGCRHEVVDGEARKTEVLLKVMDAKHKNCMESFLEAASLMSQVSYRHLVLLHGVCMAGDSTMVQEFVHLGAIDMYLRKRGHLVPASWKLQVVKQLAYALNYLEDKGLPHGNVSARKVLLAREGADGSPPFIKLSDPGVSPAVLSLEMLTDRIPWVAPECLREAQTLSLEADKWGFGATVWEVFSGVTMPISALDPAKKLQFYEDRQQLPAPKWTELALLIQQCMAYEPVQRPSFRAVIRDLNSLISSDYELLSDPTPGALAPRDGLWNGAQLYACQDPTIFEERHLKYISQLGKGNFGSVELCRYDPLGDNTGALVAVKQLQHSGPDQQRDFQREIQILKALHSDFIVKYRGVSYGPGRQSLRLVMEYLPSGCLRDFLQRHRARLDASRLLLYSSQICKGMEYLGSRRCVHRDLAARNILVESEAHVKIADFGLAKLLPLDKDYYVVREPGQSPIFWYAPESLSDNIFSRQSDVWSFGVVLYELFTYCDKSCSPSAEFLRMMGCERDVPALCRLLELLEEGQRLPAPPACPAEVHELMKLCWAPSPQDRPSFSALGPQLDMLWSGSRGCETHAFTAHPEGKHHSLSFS
Outline: as §1

Tyk2 = Tyk2 (Homo sapiens (Human), UniProt P29597); test: Biochemical Tyk2 kinase assay (LanthaScreen)
Sequence of Tyk2 (P29597 whole entry): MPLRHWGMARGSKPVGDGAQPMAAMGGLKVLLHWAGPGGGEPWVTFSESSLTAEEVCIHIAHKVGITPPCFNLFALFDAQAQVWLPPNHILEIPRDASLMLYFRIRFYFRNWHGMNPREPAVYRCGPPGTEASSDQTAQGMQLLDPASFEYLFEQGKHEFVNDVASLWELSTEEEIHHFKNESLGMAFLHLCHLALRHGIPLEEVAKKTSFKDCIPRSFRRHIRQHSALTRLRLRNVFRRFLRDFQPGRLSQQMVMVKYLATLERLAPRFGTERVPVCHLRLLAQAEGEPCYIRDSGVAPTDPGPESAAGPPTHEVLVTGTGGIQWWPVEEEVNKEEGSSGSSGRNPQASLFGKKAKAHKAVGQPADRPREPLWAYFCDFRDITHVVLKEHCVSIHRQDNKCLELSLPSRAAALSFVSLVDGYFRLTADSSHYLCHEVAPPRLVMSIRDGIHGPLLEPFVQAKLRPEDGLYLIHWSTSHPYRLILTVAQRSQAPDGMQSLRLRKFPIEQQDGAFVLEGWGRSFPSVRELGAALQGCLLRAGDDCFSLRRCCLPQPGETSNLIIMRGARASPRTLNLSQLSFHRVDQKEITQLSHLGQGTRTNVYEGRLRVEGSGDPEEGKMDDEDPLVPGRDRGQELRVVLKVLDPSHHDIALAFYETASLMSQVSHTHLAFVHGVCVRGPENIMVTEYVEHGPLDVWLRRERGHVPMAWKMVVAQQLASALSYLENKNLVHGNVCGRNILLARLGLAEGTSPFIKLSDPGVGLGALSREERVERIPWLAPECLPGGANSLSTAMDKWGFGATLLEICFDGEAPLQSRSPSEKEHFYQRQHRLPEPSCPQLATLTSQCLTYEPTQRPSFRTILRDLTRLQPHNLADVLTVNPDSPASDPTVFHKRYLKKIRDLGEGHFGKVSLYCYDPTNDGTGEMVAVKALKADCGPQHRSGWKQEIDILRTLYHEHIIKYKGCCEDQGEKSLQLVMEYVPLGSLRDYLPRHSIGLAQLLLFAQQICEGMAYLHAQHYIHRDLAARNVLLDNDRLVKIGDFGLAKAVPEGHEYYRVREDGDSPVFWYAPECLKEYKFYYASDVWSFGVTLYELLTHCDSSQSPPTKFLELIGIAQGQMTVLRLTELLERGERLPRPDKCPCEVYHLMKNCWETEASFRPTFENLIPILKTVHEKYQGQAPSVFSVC
Outline: as §1

[2] = IL-2 stimulated pSTAT5, Tall-1 T cells
[3] = selectivity JAK3 over JAK1, difference of pKi

Sequence of JAK1 (P23458 whole entry): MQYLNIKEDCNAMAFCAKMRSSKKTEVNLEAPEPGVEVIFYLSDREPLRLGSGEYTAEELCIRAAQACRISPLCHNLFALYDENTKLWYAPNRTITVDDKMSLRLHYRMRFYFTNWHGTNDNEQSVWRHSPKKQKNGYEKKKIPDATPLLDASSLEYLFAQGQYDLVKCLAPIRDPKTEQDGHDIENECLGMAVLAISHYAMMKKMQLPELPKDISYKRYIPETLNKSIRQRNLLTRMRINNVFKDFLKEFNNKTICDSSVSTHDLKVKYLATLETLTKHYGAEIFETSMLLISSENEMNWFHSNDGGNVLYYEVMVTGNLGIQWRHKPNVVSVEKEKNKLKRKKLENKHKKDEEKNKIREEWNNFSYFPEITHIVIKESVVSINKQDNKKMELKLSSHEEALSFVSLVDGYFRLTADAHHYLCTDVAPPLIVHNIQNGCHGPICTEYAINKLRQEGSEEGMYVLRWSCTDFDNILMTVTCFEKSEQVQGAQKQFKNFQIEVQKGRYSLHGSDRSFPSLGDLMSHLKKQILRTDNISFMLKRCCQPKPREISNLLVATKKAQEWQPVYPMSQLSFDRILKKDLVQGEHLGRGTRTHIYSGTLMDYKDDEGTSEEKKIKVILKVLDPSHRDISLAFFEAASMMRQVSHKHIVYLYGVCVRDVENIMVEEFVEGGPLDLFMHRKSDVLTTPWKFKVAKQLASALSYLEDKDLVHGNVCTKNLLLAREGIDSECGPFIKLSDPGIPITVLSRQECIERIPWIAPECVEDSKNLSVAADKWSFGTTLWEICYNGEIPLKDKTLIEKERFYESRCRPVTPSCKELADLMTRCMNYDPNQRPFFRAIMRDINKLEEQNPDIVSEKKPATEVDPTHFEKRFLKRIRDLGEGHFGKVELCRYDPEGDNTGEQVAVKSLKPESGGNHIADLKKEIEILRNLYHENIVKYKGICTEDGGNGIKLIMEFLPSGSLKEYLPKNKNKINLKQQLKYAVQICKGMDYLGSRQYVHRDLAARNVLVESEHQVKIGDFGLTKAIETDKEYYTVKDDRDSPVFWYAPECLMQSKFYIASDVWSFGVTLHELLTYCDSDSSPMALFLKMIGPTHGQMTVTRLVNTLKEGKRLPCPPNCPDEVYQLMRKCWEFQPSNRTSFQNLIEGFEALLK

Compound	JAK 1 (pKi) (JAK1)	JAK 2 (pKi) (JAK2)	Tall-1 (pIC50) [1, 2]	JAK 3 (pKi) (JAK3)	JAK3 (pKi)-JAK1 (pKi) (JAK3; [3])	Tyk 2 (pKi) (Tyk2)	Tall-1 (pIC50) ([1]; IL-2 stimulated pSTAT5 in Tall-1 T cells)	JAK3 (pKi)-JAK1 (pKi) (JAK3; selectivity, difference of pKi values)
C=CC(=O)N1CC(CCn2c(=O)ccc3cnc(Nc4cnn(-c5ccccc5)c4)nc32)C1 [Example 34]	E (E represents a pKi value of 7 or below (Ki of 100 nM or above))	E (E represents a pKi value of 7 or below (Ki of 100 nM or above))	B (B represents a pC50 value between 6.7 (included) and 7.5 (IC50 between 200 nM and 32 nM))	B (B represents pKi value between 9 and 10 (Ki between 1 nM and 0.1 nM))	A (A represents a value of 3 or above)	E (E represents a pKi value of 7 or below (Ki of 100 nM or above))		
C=CC(=O)N1CC(CCn2c(=O)ccc3cnc(Nc4ccc(N5CCN(C(C)=O)C[C@@H]5C)cc4)nc32)C1 [Example 168]	E (E represents a pKi value of 7 or below (Ki of 100 nM or above))	E (E represents a pKi value of 7 or below (Ki of 100 nM or above))	A (A represents a pIC50 value≥7.5 (IC50≤32 nM))	A (A represents a pKi value≥10 (Ki≤0.1 nM))	A (A represents a value of 3 or above)	E (E represents a pKi value of 7 or below (Ki of 100 nM or above))		
C=CC(=O)N1CC(C)(CCn2c(=O)ccc3cnc(Nc4ccc(N5CCN(C(C)=O)CC5)cc4)nc32)C1 [Example 161]	E (E represents a pKi value of 7 or below (Ki of 100 nM or above))	E (E represents a pKi value of 7 or below (Ki of 100 nM or above))	A (A represents a pIC50 value≥7.5 (IC50≤32 nM))	B (B represents pKi value between 9 and 10 (Ki between 1 nM and 0.1 nM))	A (A represents a value of 3 or above)	E (E represents a pKi value of 7 or below (Ki of 100 nM or above))		
C=CC(=O)N1CCN(CCn2c(=O)ccc3cnc(Nc4cnn(CC)c4)nc32)[C@@H](C)C1 [Example 243]	E (E represents a pKi value of 7 or below (Ki of 100 nM or above))	E (E represents a pKi value of 7 or below (Ki of 100 nM or above))		B (B represents pKi value between 9 and 10 (Ki between 1 nM and 0.1 nM))		E (E represents a pKi value of 7 or below (Ki of 100 nM or above))	B (B represents a pC50 value between 6.7 (included) and 7.5 (IC50 between 200 nM and 32 nM))	A (A represents a value of 3 or above)
C=CC(=O)N1CCN(CCn2c(=O)ccc3cnc(Nc4cnn(-c5ccccc5)c4)nc32)[C@@H](CC)C1 [Example 195]	E (E represents a pKi value of 7 or below (Ki of 100 nM or above))	E (E represents a pKi value of 7 or below (Ki of 100 nM or above))	B (B represents a pC50 value between 6.7 (included) and 7.5 (IC50 between 200 nM and 32 nM))	B (B represents pKi value between 9 and 10 (Ki between 1 nM and 0.1 nM))	A (A represents a value of 3 or above)	E (E represents a pKi value of 7 or below (Ki of 100 nM or above))		
C=CC(=O)N1CCN(CCn2c(=O)ccc3cnc(Nc4ccc(N5CCN(CC)CC5)cc4)nc32)CC1 [Example 204]	E (E represents a pKi value of 7 or below (Ki of 100 nM or above))	E (E represents a pKi value of 7 or below (Ki of 100 nM or above))	A (A represents a pIC50 value≥7.5 (IC50≤32 nM))	A (A represents a pKi value≥10 (Ki≤0.1 nM))	A (A represents a value of 3 or above)	E (E represents a pKi value of 7 or below (Ki of 100 nM or above))		
C=CC(=O)N1CCN(CCn2c(=O)ccc3cnc(Nc4cnn(CCOCC)c4)nc32)[C@@H](C)C1 [Example 229]	E (E represents a pKi value of 7 or below (Ki of 100 nM or above))	E (E represents a pKi value of 7 or below (Ki of 100 nM or above))	B (B represents a pC50 value between 6.7 (included) and 7.5 (IC50 between 200 nM and 32 nM))	B (B represents pKi value between 9 and 10 (Ki between 1 nM and 0.1 nM))	A (A represents a value of 3 or above)	E (E represents a pKi value of 7 or below (Ki of 100 nM or above))		
